Laboratory results taken from patent publication US4605744A, “Imidazole derivatives” (Hoffmann-La Roche Inc., priority 1985, dated 1986).
Structures can show the parent of a compound that is named as a salt. Where two headings read alike, the source gives them in different places.

Columns and labels:
Assay in all cases: In vitro antibacterial activity (MIC)
Format in all cases: cell-based
[1] = test system: K. pneumoniae 4964
Protocol: (§1) Drug dilutions are prepared in Mueller-Hinton broth ranging from 128 to 0.008 μg/ml. The diluted agents are dispensed in 100 μl amounts into the wells of a 96-well tray and used immediately or frozen at -10° to -70° C. until needed. Using an automated inoculator, 1.5 μl of a 10^-2 dilution of an overnight culture is added to each well of the tray. The tops of the trays are then sealed using transparent tape and incubated overnight at 37° C. The trays are examined with the aid of a viewer. The lowest concentration at which no growth is observed is considered to be the minimum inhibitory concentration (MIC).

[2] = test system: E. coli 503-455
Protocol: as §1

[3] = test system: K. pneumoniae 503-994; settings: Klebsiella pneumoniae, 503994, K. pneumoniae 503-994; read-out: MIC
Protocol: as §1

[4] = test system: E. coli 48; settings: Escherichia coli, 48, E. coli 48; read-out: MIC
Protocol: as §1

[5] = test system: S. marcescens S5; settings: Serratia marcescens, S5, S. marcescens S5; read-out: MIC
Protocol: as §1

[6] = test system: P. vulgaris 100; settings: Proteus vulgaris; P. vulgaris 100; read-out: MIC
Protocol: as §1

[7] = test system: P. mirabilis 503-1136; settings: Proteus mirabilis, 5031136, P. mirabilis 503-1136; read-out: MIC
Protocol: as §1

[8] = test system: E. cloacae 24
Protocol: as §1

[9] = test system: E. coli 5152
Protocol: as §1

[10] = test system: E. cloacae 5699; settings: Enterobacter cloacae, 5699, E. cloacae 5699; read-out: MIC
Protocol: as §1

[11] = test system: K. pneumoniae 5096; settings: Klebsiella pneumoniae; K. pneumoniae 5096; read-out: MIC
Protocol: as §1

[12] = test system: K. pneumoniae A; settings: Klebsiella pneumoniae, K. pneumoniae A; read-out: MIC
Protocol: as §1

[13] = test system: P. vulgaris ATCC 6380; settings: Proteus vulgaris, ATCC6380, P. vulgaris ATCC 6380; read-out: MIC
Protocol: as §1

[14] = test system: E. aerogenes 503-478; settings: Klebsiella aerogenes, 503478, E. aerogenes 503-478; read-out: MIC
Protocol: as §1

[15] = test system: P. mirabilis 620A; settings: Proteus mirabilis, 620A, P. mirabilis 620A; read-out: MIC
Protocol: as §1

[16] = test system: E. coli 4
Protocol: as §1

[17] = test system: P. mirabilis 90; settings: Proteus mirabilis, 90, P. mirabilis 90; read-out: MIC
Protocol: as §1

[18] = test system: S. marcescens S1; settings: Serratia marcescens, S1, S. marcescens S1; read-out: MIC
Protocol: as §1

[19] = test system: E. cloacae 9570A; settings: Enterobacter cloacae, read-out: MIC
Protocol: as §1

[20] = test system: S. marcescens S4; settings: Serratia marcescens, S4, S. marcescens S4; read-out: MIC
Protocol: as §1

[21] = test system: P. vulgaris 101; settings: Proteus vulgaris, 101, P. vulgaris 101; read-out: MIC
Protocol: as §1

[22] = test system: C. diversus CDC 1663-72; settings: Citrobacter koseri, CDC166372; C. diversus CDC 1663-72; read-out: MIC
Protocol: as §1

[23] = test system: S. pneumoniae 6302; settings: Streptococcus pneumoniae, 6302, S. pneumoniae 6302; read-out: MIC
Protocol: as §1

[24] = test system: S. aureus Smith; settings: Staphylococcus aureus, S. aureus Smith; read-out: MIC
Protocol: as §1

[25] = test system: E. cloacae 214; settings: Enterobacter cloacae, 214, E. cloacae 214; read-out: MIC
Protocol: as §1

[26] = test system: E. aerogenes 8; settings: Klebsiella aerogenes; E. aerogenes 8; read-out: MIC
Protocol: as §1

[27] = test system: P. aeruginosa POW 151; settings: Pseudomonas aeruginosa, POW151
Protocol: as §1

[28] = test system: E. coli R-563; settings: Escherichia coli, R563, E. coli R-563; read-out: MIC
Protocol: as §1

[29] = test system: E. cloacae 6951; settings: Enterobacter cloacae, 6951, E. cloacae 6951; read-out: MIC
Protocol: as §1

[30] = test system: S. marcescens S2; settings: Serratia marcescens; S. marcescens S2; read-out: MIC
Protocol: as §1

[31] = test system: P. mirabilis 2; settings: Proteus mirabilis, 2, P. mirabilis 2; read-out: MIC
Protocol: as §1

[32] = test system: E. cloacae P99; settings: Enterobacter cloacae, P99, E. cloacae P99
Protocol: as §1

[33] = test system: C. freundii CDC6; settings: Citrobacter freundii, CDC6, C. freundii CDC6; read-out: MIC
Protocol: as §1

[34] = test system: C. freundii 8ASM; settings: Citrobacter freundii, 8ASM, C. freundii 8ASM; read-out: MIC
Protocol: as §1

[35] = test system: S. aureus 1059B; settings: Staphylococcus aureus, read-out: MIC
Protocol: as §1

[36] = test system: P. aeruginosa 8780; settings: Pseudomonas aeruginosa; P. aeruginosa 8780; read-out: MIC
Protocol: as §1

[37] = test system: S. pneumoniae 6301; settings: Streptococcus pneumoniae, 6301
Protocol: as §1

[38] = test system: P. aeruginosa 503-820; settings: Pseudomonas aeruginosa, 503820; P. aeruginosa 503-820; read-out: MIC
Protocol: as §1

[39] = test system: S. pyogenes 503-782; settings: Streptococcus pyogenes, 503782; S. pyogenes 503-782; read-out: MIC
Protocol: as §1

[40] = test system: P. aeruginosa 5712; settings: Pseudomonas aeruginosa; P. aeruginosa 5712; read-out: MIC
Protocol: as §1

[41] = test system: S. schottmuelleri; settings: read-out: MIC
Protocol: as §1

| SMILES | MIC [3] [µg/mL] | MIC [4] [µg/mL] | MIC [5] [µg/mL] | MIC [6] [µg/mL] | MIC [7] [µg/mL] | MIC [10] [µg/mL] | MIC [11] [µg/mL] | MIC [12] [µg/mL] | MIC [13] [µg/mL] | MIC [14] [µg/mL] | MIC [15] [µg/mL] | MIC [17] [µg/mL] | MIC [18] [µg/mL] | MIC [19] [µg/mL] | MIC [20] [µg/mL] | MIC [21] [µg/mL] | MIC [22] [µg/mL] | MIC [25] [µg/mL] | MIC [26] [µg/mL] | MIC [27] [µg/mL] | also measured |
| --- | --- | --- | --- | --- | --- | --- | --- | --- | --- | --- | --- | --- | --- | --- | --- | --- | --- | --- | --- | --- | --- |
| CC1(C)S[C@@H]2[C@H](N=CN3CCC(Cc4ncc[nH]4)CC3)C(=O)N2[C@H]1C(=O)O [Q, [2S-(2alpha,5alpha,6beta)]-6-[[[4-(1H-imidazol-2-yl-methyl)-1-piperidinyl]methylene]amino]-3,3-dimethyl-7-oxo-4-thia-1-azabicyclo[3.2.0]heptane-2-carboxylic acid hydrochloride] | 8 | 8 | 0.5 | 1 | 8 | 4 | 128 | 0.062 | 0.016 | 16 | > 128 | 0.5 | 0.125 | 0.125 | 0.5 | 8 | 0.062 | 0.5 | 0.125 | > 128 | MIC ([1]; Klebsiella pneumoniae, 4964, K. pneumoniae 4964, read-out: MIC): 4 µg/mL; MIC ([2]; Escherichia coli, 503455, E. coli 503-455, read-out: MIC): 1 µg/mL; MIC ([8]; Enterobacter cloacae, 24, E. cloacae 24, read-out: MIC): 0.5 µg/mL; MIC ([9]; Escherichia coli, 5152, E. coli 5152, read-out: MIC): 64 µg/mL; MIC ([16]; Escherichia coli, 4, E. coli 4, read-out: MIC): 0.062 µg/mL; MIC [23]: 2 µg/mL; MIC [24]: 8 µg/mL; MIC [28]: 0.062 µg/mL; MIC [29]: 16 µg/mL; MIC [30]: 0.125 µg/mL; MIC [31]: 8 µg/mL; MIC [32]: 8 µg/mL; MIC [33]: 64 µg/mL; MIC [34]: 0.062 µg/mL; MIC [35]: 128 µg/mL |
| CC1(C)S[C@@H]2[C@H](N=CN3CCC(CCn4ccnc4)CC3)C(=O)N2[C@H]1C(=O)O [B, [2S-2alpha,5alpha,6beta)]-6-[[[4-[2-(1H-imidazol-1-yl)ethyl]-1-piperidinyl]methylene]amino]-3,3-dimethyl-7-oxo-4-thia-1-azabicyclo[3.2.0]heptane-2-carboxylic acid hydrate hydrochloride] | 0.25 | 0.25 | 2 | 8 | 8 | 0.5 | 0.25 | 0.062 | 0.5 | 2 | > 128 | 2 | 0.5 | 0.5 | 1 | 1 | 0.25 | 1 | 0.25 | > 128 | MIC [36]: > 128 µg/mL; MIC ([1]; Klebsiella pneumoniae, 4964): 0.5 µg/mL; MIC ([2]; Escherichia coli, 503455): 1 µg/mL; MIC ([8]; Enterobacter cloacae, 24): 2 µg/mL; MIC ([9]; Escherichia coli, 5152): 16 µg/mL; MIC ([16]; Escherichia coli, 4): 8 µg/mL; MIC [37]: 4 µg/mL; MIC [38]: > 128 µg/mL; MIC [28]: 8 µg/mL; MIC [29]: 16 µg/mL; MIC [30]: 0.5 µg/mL; MIC [39]: 8 µg/mL; MIC [40]: > 128 µg/mL; MIC [31]: 1 µg/mL; MIC [33]: 0.25 µg/mL; MIC [34]: 0.062 µg/mL; MIC [35]: > 128 µg/mL; MIC [41]: 0.25 µg/mL |
